Laboratory results taken from ChEMBL document CHEMBL1240302, “Small-molecule interaction with a five-guanine-tract G-quadruplex structure from the human MYC promoter” (Nat Chem Biol, 2005).
The source made the active and inactive calls. The rule behind the calls is not given here.

Test system: Nucleic Acid
Assay: Binding affinity to human c-MYC Pu24I G-quadruplex structure assessed as stabilization of G-quadruplex by NMR spectroscopy
Type: nucleic-acid assay

| Structure (SMILES) | Activity |
| --- | --- |
| CC[n+]1c(-c2ccccc2)c2cc(N)ccc2c2ccc(N)cc21 | Active |
| COc1cccc2c1C(=O)c1c(O)c3c(c(O)c1C2=O)C[C@@](O)(C(C)=O)C[C@@H]3O[C@H]1C[C@H](N)[C@H](O)[C@H](C)O1 | Active |
| C[n+]1ccc(-c2c3nc(c(-c4cc[n+](C)cc4)c4ccc([nH]4)c(-c4cc[n+](C)cc4)c4ccc([nH]4)c(-c4cc[n+](C)cc4)c4nc2C=C4)C=C3)cc1 | Active |
| CN1CCN(c2ccc3[nH]c(-c4ccc5[nH]c(-c6ccc(O)cc6)nc5c4)nc3c2)CC1 | Active |
